Tests used:
wt-BTK = wt-BTK (Homo sapiens (Human), UniProt Q06187); assay: Binding kinetics measurements (Surface Plasmon Resonance) on wt-BTK; details: for Tau (h) wt-BTK (Act): target residence time, SPR
How it was run: (§1)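 Kinetic constants came from double-referenced SPR sensorgrams of five ascending compound injections (3.16-316 nM, single cycle) over streptavidin-captured enzyme. Flow was 30 μl/min at 22° C with 1% DMSO. Duplicate ka, kd and KD were geometrically averaged.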

BTK C481S = BTK C481S (Homo sapiens (Human), UniProt Q06187, C481S); assay: Binding kinetics measurements (Surface Plasmon Resonance) on BTK C481S; details: for Tau (h) BTK C418S (Act): target residence time for BTK C481S, SPR
How it was run: as §1

BTK T316A = BTK T316A (Homo sapiens (Human), UniProt Q06187, T316A); assay: Binding kinetics measurements (Surface Plasmon Resonance) on BTK T316A; details: for Tau (h) BTK T316A (Act): target residence time, SPR
How it was run: as §1

BTK T474I = BTK T474I (Homo sapiens (Human), UniProt Q06187, T474I); assay: Binding kinetics measurements (Surface Plasmon Resonance) on BTK T474I; details: for Tau (h) BTK T474I (Act): target residence time, SPR
How it was run: as §1

BTK T474S = BTK T474S (Homo sapiens (Human), UniProt Q06187, T474S); assay: Binding kinetics measurements (Surface Plasmon Resonance) on BTK T474S; details: for residence time: read-out: Tau (h) BTK T474S (Act), target residence time
How it was run: as §1

[1] = tested on: wt-BTK, BTK C481S, BTK T474I and BTK C481S/T474I expressing 293 cells; assay: Cell based washout, pBTK (Tyr223) Western blot; design: species or system human; details: 1000 nM compound 2 hours, washed twice, harvested 0-24 hours
Experimental: In vitro cellular (mutant) BTK inhibition, and inhibitor wash-out Generation of human wt-BTK, BTK C481S, BTK T474I, and BTK C481S/T474I expressing GripTite 293 MSR cells.
GripTite 293 MSR cells (Thermo Fisher, cat. no. R79507), here after referred to as 293 cells, were cultured in DMEM/F-12, GIutaMAX™ supplement medium (Thermo Fisher cat. no. 10565018) supplemented with 1% Penicilline/Streptomycine (Thermo Fisher cat. no. 15140122) 10% fetal bovine serum (Biowest, cat. no. Si181 0-500), 1× MEM Non-Essential Amino Acids (Thermo Fisher cat. no. 11140050) and 50 μg/ml Geneticin (Thermo Fisher cat. no. 10131035). Cells were transfected, with pEF6/V5-HisB (Thermo Fisher cat. no. V96120) expression vectors containing either full-length wildtype-BTK (canonical sequence NM_000061), BTK C481 S, BTK T474I or BTK C481 S/T474I (BaseClear) using Lipofectamine™ 3000 (Invitrogen). Because the stop codon at the end of the coding sequence of BTK has been conserved, the His-tag present in the expression vector is not being used. Immediately after transfection, cells were cultured in medium without Geneticin, and after 24 hours 50 μg/ml geneticin was added. 48 hours after transfection, medium was removed and replaced by medium containing both geneticin (50 μg/ml) and blasticidin (10 μg/ml) S HCl (Thermo Fisher, cat. no. A1113903). The resulting transfectants were cultured under blasticidin selection pressure for 18-35 passages to obtain stable wild-type BTK (wt-BTK), BTK C481S, BTK T474I, and BTK C481 S/T474I expressing cell pools. Stability of the (mutant) BTK expression in the 293 cell pools was confirmed by poly-acrylamide gel electrophoresis followed by Western blotting (FIG. 1A). […] For both experiments 10 μg of protein was separated on 4-12% Bis-Tris polyacrylamide gels.
Wild-type BTK, BTK C481S, BTK T474I or BTK C481 S/T474I expressing 293 cells were lysed in lysis buffer supplemented with protease inhibitors (Merck, cat. no. P8340) and phosphatase inhibitors (Thermo Fisher, cat. no. 78426). The protein concentration was determined with a Pierce BCA protein assay kit (Thermo Fisher, cat. no. 23227). Lysates were diluted to a concentration of 1 μg/μl in NuPage® LDS Sample Buffer (Thermo Fisher, cat. no. NP0008) with 167 mM DTT (Acros Organics, cat. no. 10686841) and denatured for 5 minutes at 95° C. The samples (10 μg protein) were, together with a pre stained protein ladder (Thermo Fisher, cat. no. 26616), separated on 4-12% Bis-Tris polyacrylamide gels (Thermo Fisher, cat. no. NP0324BOX). Separated protein was subsequently transferred, in methanol free transfer buffer (Thermo Fisher, cat. no. 35045), to a nitrocellulose membrane (Thermo Fisher, cat. no. 88018). Blots were first immunologically stained with phospho-BTK (Tyr223) rabbit mAb (Cell Signaling, cat. no. 5082S), and beta-actin rabbit mAb (Cell Signaling, cat. no. 4967S), followed by peroxidase conjugated goat anti-rabbit IgG (Cell Signaling, cat. no. 7074S). Afterwards, antibodies were removed using Western-blot stripping buffer (Thermo Fisher cat. no. 46428) and staining was repeated with a (total-)BTK mouse mAb (Abnova, cat. no. MAB0798), followed by peroxidase conjugated horse anti-mouse IgG (Cell Signaling, cat. no. 7076S). For all blots the colour development was performed with ECL horseradish peroxidase substrate (BioRad, cat. no. 170-5060).
Wild-type BTK, BTK C481S, BTK T474I, and BTK C481 S/T474I expressing 293 cells were growing exponentially when seeded in culture medium, without blasticidin, at a density of 2,000,000 cells/4 ml/well, in 25 cm^2 cell culture flasks (Greiner Bio-one, cat. no. 690175). Flasks were placed in a 37° C. C02-incubator for 16-24 hours after which 1 ml culture medium containing 5000 nM of the compound of Example 46 or Example 201, or Example 184, or Example 204, or Example 45 or (+/−) Loxo-305, or 0.05% DMSO (no compound) was added. 2 hours after addition of the inhibitors (0h) cells are either collected or washed twice with 5 ml culture medium. […]

[2] = binding affinity by Surface Plasmon Resonance (SPR)

Chain of BTK T474S (Q06187 whole entry T474S): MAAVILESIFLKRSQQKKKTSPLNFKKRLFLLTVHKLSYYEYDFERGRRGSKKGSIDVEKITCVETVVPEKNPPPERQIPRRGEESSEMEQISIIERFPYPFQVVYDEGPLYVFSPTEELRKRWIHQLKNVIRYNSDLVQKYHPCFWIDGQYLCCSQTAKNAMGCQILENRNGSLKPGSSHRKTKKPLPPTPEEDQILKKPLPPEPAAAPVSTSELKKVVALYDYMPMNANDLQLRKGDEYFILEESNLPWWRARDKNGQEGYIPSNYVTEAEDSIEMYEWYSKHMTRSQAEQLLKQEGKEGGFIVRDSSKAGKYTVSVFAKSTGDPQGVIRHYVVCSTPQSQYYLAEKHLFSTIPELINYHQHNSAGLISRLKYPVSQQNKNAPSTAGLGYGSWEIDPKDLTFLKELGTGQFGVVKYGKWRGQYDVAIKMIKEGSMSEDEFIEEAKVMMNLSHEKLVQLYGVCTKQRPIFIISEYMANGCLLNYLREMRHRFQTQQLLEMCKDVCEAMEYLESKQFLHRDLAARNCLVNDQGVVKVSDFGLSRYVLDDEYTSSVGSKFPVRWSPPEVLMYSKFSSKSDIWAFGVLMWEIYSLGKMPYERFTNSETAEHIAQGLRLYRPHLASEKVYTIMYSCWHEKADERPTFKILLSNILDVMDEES
Chain of wt-BTK (Q06187 whole entry): as the sequence (Q06187 whole entry T474S) above, with S474T counted along it
Chain of BTK T316A (Q06187 whole entry T316A): as the sequence (Q06187 whole entry T474S) above, with T316A, S474T counted along it
Chain of BTK T474I (Q06187 whole entry T474I): as the sequence (Q06187 whole entry T474S) above, with S474I counted along it
Chain of BTK C481S (Q06187 whole entry C481S): as the sequence (Q06187 whole entry T474S) above, with S474T, C481S counted along it

SMILES | Kd (wt-BTK; [2]) [nM] | Tau (h) wt-BTK (Act) (wt-BTK) [h] | Kd (BTK C481S; [2]) [nM] | Tau (h) BTK C418S (Act) (BTK C481S) [h] | Kd (BTK T316A; [2]) [nM] | Tau (h) BTK T316A (Act) (BTK T316A) [h] | Kd (BTK T474I; [2]) [nM] | Tau (h) BTK T474I (Act) (BTK T474I) [h] | Kd (BTK T474S; [2]) [nM] | residence time (BTK T474S) [h] | time for which level of phosphorylated BTK (pBTK (Tyr223)) is prohibited or reduced after wash-out ([1]; also cell lines expressing mutant BTK) | target residence time on wild-type-BTK (wt-BTK; result in words) | target residence time on BTK C481 mutants (BTK C481S; result in words) | target residence time on BTK T316 mutants (BTK T316A; result in words) | target residence time on BTK T474 mutants (T474I) (BTK T474I; result in words) | target residence time on BTK T474 mutants (T474S) (BTK T474S; result in words) | level of phosphorylated BTK (pBTK (Tyr223)) in wash-out experiments ([1]; result in words)
Nc1ncc2c3c1c(-c1ccc(C(=O)Nc4cc(C(F)(F)F)ccn4)cc1)nn3[C@@H]1CCC[C@H](C1)NC(=O)CCCCC/C=C/2 [Example 46] | < 5 | 4.87 | < 5 | 9.36 | < 5 | 3.23 | < 2 | 2.58 | < 3 | 4.8 | at least 6 hours |  |  |  |  |  | 
COc1ccc(F)cc1C(=O)NCc1ccc(-c2nn([C@@H](C)C(F)(F)F)c(N)c2C(N)=O)cc1 [pirtobrutinib, reference compound] |  | 0.45 |  | 0.91 |  | 0.17 |  | 0.03 |  | 1.25 |  | short target residence times | short target residence times | short target residence times | short target residence times | short target residence times | does not prohibit or reduce the level of phosphorylated BTK

Source: patent publication US20250074911A1, “MACROCYCLIC BTK INHIBITORS” (Crossfire Oncology Holding B.V., priority 2021, published 2025)
